Read-outs that look alike come from different tables or passages of the source.
How the values were obtained:
[1] = system: leukemia and colon cancer cell lines; assay: NCI screening at several concentrations (GI50, TGI, LC50); format: cell-based, human
Description: The human tumor cell lines of the cancer screening panel were grown in RPMI 1640 medium containing 5% fetal bovine serum and 2 mM L-glutamine. For a typical screening experiment, cells are inoculated into 96 well microtiter plates in 100 μL at plating densities ranging from 5000 to 40,000 cells/well depending on the doubling time of individual cell lines. After cell inoculation, the microtiter plates are incubated at 37° C., 5% CO2, 95% air and 100% relative humidity for 24 hours prior to addition of experimental drugs. After 24 hours, two plates of each cell line are fixed in situ with Trichloroacetic acid (“TCA”), to represent a measurement of the cell population for each cell line at the time of drug addition. Experimental drugs are solubilized in dimethyl sulfoxide at 400-fold the desired final maximum test concentration and stored frozen prior to use. At the time of drug addition, an aliquot of frozen concentrate is thawed and diluted to twice the desired final maximum test concentration with complete medium containing 50 ng/mL gentamicin. An aliquot of 100 μL of this drug dilution is added to the appropriate microtiter wells already containing 100 μL of medium, resulting in the required final drug concentrations. Following drug addition, the plates are incubated for an additional 48 h at 37° C., 5% CO2, 95% air, and 100% relative humidity. For adherent cells, the assay is terminated by the addition of cold TCA. Cells are fixed in situ by the gentle addition of 50 μL of cold 50% (w/v) TCA (final concentration, 10% TCA) and incubated for 60 min at 4° C. The supernatant is discarded, and the plates are washed five times with tap water and air dried. Sulforhodamine B (SRB) solution (100 μL) at 0.4% (w/v) in 1% acetic acid is added to each well, and plates are incubated for 10 min at room temperature. After staining, unbound dye is removed by washing five times with 1% acetic acid and the plates are air dried. Bound stain is subsequently solubilized with 10 mM trizma base, and the absorbance is read on an automated plate reader at a wavelength of 515 nm. For suspension cells, the methodology is the same except that the assay is terminated by fixing settled cells at the bottom of the wells by gently adding 50 μL of 80% TCA (final concentration, 16% TCA). FIGS. 37-74 indicate the growth inhibition effects of selected Compounds against a variety of cell lines based on the above described testing configuration. FIGS. 37-74 present the Growth percent for a given compound against the cell lines and both values and a bar chart of the difference between the mean growth percent and the growth percent which is an indication of the selectivity of the compound for that particular cell line. […]

[2] = system: MCF7 human breast cancer cell line; assay: MTT assay of MCF7 cells; format: cell-based; details: Homo sapiens, media containing 1% fetal bovine serum
Description: (§1) MDA-MB-231 and MCF7 cells were plated at a density of 8×10^3 cells/well and 10^4 cells/well in 96-well culture plates, respectively. The compounds were fed in serum free media containing 5% and 1% fetal bovine serum for MDA-MB-231 and MCF7 cells, respectively.

[3] = system: MDA-MB-231 human breast cancer cells; assay: Wound-healing assay (cell migration); format: cell-based; details: Homo sapiens
Description: The highly metastatic human breast cancer MDA-MB-231 cells were cultured in RPMI 1640 medium containing 10 mM HEPES, 4 mM L-glutamine, 10% fetal bovine serum, penicillin (100 IU/mL), and streptomycin (50 μg/mL), and grown in a 5% CO2 atmosphere at 37° C. Cells were plated onto sterile 24-well and allowed to recover for a confluent cell monolayer formed in each well (>95% confluence). Wounds were then inflicted to each cell monolayer using a sterile 200 μL pipette tip. Media were removed, cells monolayers were washed twice with PBS, and then fresh media containing test compounds were added to each well. Test compounds were prepared in DMSO at 5 μM concentration and added to the plates, each in triplicate using DMSO as negative control. The incubation was carried out for 24 h under serum-starved conditions, after which media was removed and cells were fixed and stained using a staining composition sold under the trade name Diff Quick (Dade Behring Diagnostics, Aguada, Puerto Rico). The stain comprised a fixative reagent containing 1.8 mg/L triarylmethane dye in methyl alcohol; a first solution of 1 g/L xanthene dye, buffer, and sodium azide (0.01%) as preservative; and a second solution of 1.25 g/L Thiazine dye mixture (0.625 g/L azure A and 0.625 g/L methylene blue) and buffer. The number of cells migrated on the scratched wound were counted under the microscope in three or more randomly selected fields (magnification: 400×). Final results are expressed as mean±SEM per 400× field. The wound-healing assay is a simple method for the study of directional cell migration in vitro.
Compounds were tested for their ability to inhibit the migration of the highly metastatic MDA-MB-231 human breast cancer cells in the wound-healing assay using the procedure described above. Compounds 6, 10, 12, 13, 24, 26, 27, and 29 inhibited the migration of more than 50% of the human breast cancer cells MDA-MB-231 in the wound healing assay at 5 μM dose. […] The antimigratory activity of tocotrienols may be enhanced by a terminal aromatic functionality. The presence of electron withdrawing group, such as nitro in Compound 29, may eliminate the antiproliferative activity yet retain the antimigratory activity of the compound. While the electron donating groups, such as OH and OMe found in Compounds 23 and 26, respectively, retained both antiproliferative and antimigratory activities.
Utilizing similar procedures follow-up testing was conducted on a variety of compounds using a range of compound concentrations. The results of follow-up antimigratory testing are shown in FIG. 35B and Table III below with IC50 values calculated using statistical software.

[4] = system: 60 human tumor cell lines; assay: NCI in vitro screening against 60 human cell lines, single concentration; format: cell-based; details: 10 μM dose; negative values indicate cytotoxicity
Description: Compounds selected from Compounds 3-44 were provided to the National Cancer Institute for in vitro screening against 60-human cell lines for their ability to inhibit the growth of tumor cells in a full panel representing nine different organs (blood, lung, colon, CNS, skin, ovary, kidney, prostate, and breast). The compounds were tested at a single concentration of 10 μM, and the percentages of growth inhibitions over the sixty tested cell lines were determined. Compounds showing the highest activity were chosen for secondary assays using five different compound concentrations.
The human tumor cell lines of the cancer screening panel were grown in RPMI 1640 medium containing 5% fetal bovine serum and 2 mM L-glutamine. For a typical screening experiment, cells are inoculated into 96 well microtiter plates in 100 μL at plating densities ranging from 5000 to 40,000 cells/well depending on the doubling time of individual cell lines. After cell inoculation, the microtiter plates are incubated at 37° C., 5% CO2, 95% air and 100% relative humidity for 24 hours prior to addition of experimental drugs. After 24 hours, two plates of each cell line are fixed in situ with Trichloroacetic acid (“TCA”), to represent a measurement of the cell population for each cell line at the time of drug addition. Experimental drugs are solubilized in dimethyl sulfoxide at 400-fold the desired final maximum test concentration and stored frozen prior to use. At the time of drug addition, an aliquot of frozen concentrate is thawed and diluted to twice the desired final maximum test concentration with complete medium containing 50 ng/mL gentamicin. An aliquot of 100 μL of this drug dilution is added to the appropriate microtiter wells already containing 100 μL of medium, resulting in the required final drug concentrations. Following drug addition, the plates are incubated for an additional 48 h at 37° C., 5% CO2, 95% air, and 100% relative humidity. For adherent cells, the assay is terminated by the addition of cold TCA. Cells are fixed in situ by the gentle addition of 50 μL of cold 50% (w/v) TCA (final concentration, 10% TCA) and incubated for 60 min at 4° C. The supernatant is discarded, and the plates are washed five times with tap water and air dried. Sulforhodamine B (SRB) solution (100 μL) at 0.4% (w/v) in 1% acetic acid is added to each well, and plates are incubated for 10 min at room temperature. After staining, unbound dye is removed by washing five times with 1% acetic acid and the plates are air dried. Bound stain is subsequently solubilized with 10 mM trizma base, and the absorbance is read on an automated plate reader at a wavelength of 515 nm. For suspension cells, the methodology is the same except that the assay is terminated by fixing settled cells at the bottom of the wells by gently adding 50 μL of 80% TCA (final concentration, 16% TCA). FIGS. 37-74 indicate the growth inhibition effects of selected Compounds against a variety of cell lines based on the above described testing configuration. FIGS. 37-74 present the Growth percent for a given compound against the cell lines and both values and a bar chart of the difference between the mean growth percent and the growth percent which is an indication of the selectivity of the compound for that particular cell line.

[5] = system: MDA-MB-231 human breast cancer cell line; assay: MTT assay of MDA-MB-231 cells; format: cell-based; details: Homo sapiens, media containing 5% fetal bovine serum
Description: as §1

[6] = system: MCF 10A non-tumorigenic mammary epithelial cells; assay: MTT assay of MCF10A cells; format: cell-based, human; details: for IC50: Homo sapiens
Description: MCF 10A (ATCC cat # CRL-10317) normal human non-tumorigenic mammary epithelial cells were maintained in serum-free defined medium consisting of Dulbecco's modified Eagle's medium (DMEM)/F12 containing 5% horse serum, 1% penicillin/streptomycin, 0.5 μg/mL hydrocortisone, 100 ng/mL cholera toxin, 10 μg/mL insulin, and 20 ng/mL epidermal growth factor (rhEGF). For subculturing, cells were rinsed twice with sterile Ca2+ and Mg2+-free phosphate buffered saline (PBS) and incubated in 0.25% trypsin containing 0.025% EDTA in PBS for 5 min at 37° C. The released cells were centrifuged, re-suspended in fresh media and counted using a hemocytometer. For testing, MCF 10A cells were plated at a density of 10×10^4 cells/well. A stock solution of the compounds was prepared in DMSO. DMSO was added to all treatment media such that the final DMSO concentration was the same in all treatment groups within a given experiment and was always less than 0.1%. The compounds were fed in serum free media. MCF10A mammary epithelial cell's viable number was determined by MTT colorimetric assay. […] IC50 values were calculated by non-linear regression using statistical software. The selectivity index indicated in the table represents the IC50 value for the MCF 10A cell line divided by the IC50 value for the +SA cell line.

Compound | GI50 [1] | IC50 [2] [µM] | inhibition at 5 µM ([3]; MDA-MB-231, 5 μM dose, 24 h, wound-healing assay) [%] | IC50 ([3]; MDA-MB-231, wound-healing assay, dose response, read-out: IC50 antimigratory activity) [µM] | mean percent growth across all 60 cell lines (mean 60) [4] | IC50 [5] [µM] | IC50 ([6]; MCF-10A, MCF10A cells, Table II, non-linear regression, read-out: MCF10A (IC50)) [µM] | IC50 ([6]; MCF 10A non-tumorigenic cells, Table I, read-out: IC50 MCF 10A) [µM] | Selectivity index ([6]; IC50 for MCF 10A divided by IC50 for +SA cell line)
CC(C)=CCC/C(C)=C/CC/C(C)=C/CC[C@]1(C)CCc2c3c(cc(C)c2O1)OCN(C1CCN(Cc2ccccc2)CC1)C3 [Compound 8, (R)-2-(1-benzylpiperidin-4-yl)-6,8-dimethyl-8-((3E,7E)-4,8,12-trimethyltrideca-3,7,11-trienyl)-1,2,3,8,9,10-hexahydrochromeno[5,6-e][1,3]oxazine] | nanomolar |  |  |  |  |  |  |  | 
CC(C)=CCC/C(C)=C/CC/C(C)=C/CC[C@]1(C)CCc2c3c(cc(C)c2O1)OCN(CCCO)C3 [Compound 13, 3-((R)-6,8-dimethyl-8-((3E,7E)-4,8,12-trimethyltrideca-3,7,11-trienyl)-9,10-dihydrochromeno[5,6-e][1,3]oxazin-2(1H,3H,8H)-yl)propan-1-ol] |  | > 20 | > 50 | 6 | negative | > 10 | 6.5 | 6.5 | 3.61

From patent publication US9115145B2, “Tocotrienol derivatives and associated methods” (FIRST TECH INTERNATIONAL LIMITED, priority 2011, dated 2015)
